Source: patent publication US20250195679A1, “ANTIBODY-DRUG CONJUGATE AND USE THEREOF” (SHANGHAI HUAOTA BIOPHARMACEUTICAL CO., LTD., priority 2022, published 2025)

Columns and labels:
[1] = system: MDA-MB-231 human breast cancer cells; assay: MDA-MB-231 triple-negative breast cancer CDX mouse efficacy model (Example 8); type: in vivo, NPG mice; conditions: 5 mg/kg i.p. BIW, 8 doses, FIG. 8
Description: NPG mice were used to establish an MDA-MB-231 triple-negative breast cancer animal model for assaying the efficacy of the test antibodies. The MDA-MB-231 human breast cancer cells used in this example were incubated in an L-15 medium supplemented with 10% FBS in an incubator at 37° C. without CO2. Before continuous cell culturing for ten generations, about 5.0×10^6 MDA-MB-231 cells were suspended in 100 μL of PBS and then mixed uniformly with an equal volume of Matrigel. The mixture was then inoculated by subcutaneous injection into NPG humanized mice on the right side of the back near the axilla, with an inoculation volume of about 200 μL. The mice were anesthetized with 2%-5% isoflurane prior to the inoculation. On the day of inoculation, 1.0×10^7 PBMCs (100 μL) were injected via the tail vein. When the tumors grew to an average size of about 50-80 mm^3, the […] tumor-bearing mice were randomly divided into 7 groups of 6 based on tumor volume and body weight. […] Oleclumab is an anti-CD73 monoclonal antibody developed by AstraZeneca, currently in Phase 2 clinical trials. The amino acid sequence of the heavy chain of 900201 is as set forth in SEQ ID NO. 43, and the amino acid sequence of the light chain of 900201 is as set forth in SEQ ID NO. 44.

[2] = system: BxPC-3 human pancreatic cancer cells; assay: BxPC3 CDX pancreatic cancer mouse efficacy model; type: in vivo, NPG mice; conditions: 5 mg/kg i.p. BIW, 6 doses, FIG. 7
Description: NPG mice were used to establish a BxPC-3 pancreatic cancer animal model for assaying the efficacy of the test antibodies. The BxPC-3 human pancreatic cancer cells used in this example were incubated in an RPMI-1640 medium supplemented with 10% FBS in an incubator at 37° C. with 5% CO2. Before continuous cell culturing for ten generations, 100 μL of PBS containing about 1×10^7 BxPC-3 cells was mixed uniformly with an equal volume of Matrigel. The mixture was then inoculated by subcutaneous injection into 18 NPG mice on the right side of the back near the axilla, with an inoculation volume of about 200 μL. The mice were anesthetized with 2%-5% isoflurane prior to the inoculation. On the day of inoculation, 1.0×10^7 PBMCs (100 μL) were injected via the tail vein. When the tumors grew to an average size of about 50-80 mm^3, the 18 tumor-bearing mice were randomly divided into 3 groups of 6 based on tumor volume and body weight.
Oleclumab is an anti-CD73 monoclonal antibody developed by AstraZeneca, currently in Phase 2 clinical trials. Uliledlimab is an anti-CD73 monoclonal antibody developed by I-Mab Biopharma, currently in Phase 1 clinical trials. The amino acid sequence of the heavy chain of 900543 is as set forth in SEQ ID NO. 45, and the amino acid sequence of the light chain of 900543 is as set forth in SEQ ID NO. 46. […]

For “900201: negative control antibody, which does not bind to the CD73 antigen; heavy chain SEQ ID NO. 43, light chain SEQ ID NO. 44 [compound 900201, reference compound]”, the “inhibition of growth of MDA-MB-231 breast cancer” value [1] was “could not inhibit the tumor growth”.

For “900543: negative control antibody, which does not bind to the CD73 antigen; heavy chain SEQ ID NO. 45, light chain SEQ ID NO. 46 [compound 900543, reference compound]”, the “inhibition of growth of BxPC-3 pancreatic cancer” value [2] was “could not inhibit tumor growth”.
